Values quoted from earlier work, collected in patent US10328076B2, “Pharmaceutical composition comprising a triazole antifungal agent and method for preparation thereof” (PHARMATHEN S.A., priority 2014, dated 2019).
Read-outs that look alike come from different tables or passages of the source.

Solubility (in acetone): freely soluble | Solubility (in dichlorometane): freely soluble | Solubility (in water): very slightly soluble
Structure (SMILES): C[C@@H](c1ncncc1F)[C@](O)(Cn1cncn1)c1ccc(F)cc1F [Voriconazole, (2R,3S)-2-(2,4-difluorophenyl)-3-(5-fluoropyrimidin-4-yl)-1-(1H-1,2,4-triazol-1-yl)butan-2-ol]
